As usually defined, the EC50 is the concentration that produces a half-maximal response. High values mean lower potency in that assay, low ones higher potency in that assay.

This note sets out measurements from PMC9369311, “Examination of Intracellular GPCR-Mediated Signaling with High Temporal Resolution” (International Journal of Molecular Sciences, 2022).

The subject of one assay is adenylyl cyclases. Put plainly: Stopped-flow Ca2+ fluorescence measurements, flpTM-DmOctβ1 cells, NKH477. Format: cell-based, human. As for the experimental part: In successive stopped-flow measurements, the flpTM-DmOctβ1 cells loaded with Fluo-4 were stimulated with increasing octopamine (1 nM–3 µM) and NKH477 (100 nM–300 µM) concentrations. The fluorescence intensities were monitored over 80 s and 100 s, respectively (Figure 4A1,B1). The fluorescence intensities increased and finally reached a plateau with increasing concentrations of both of the ligands. However, the saturating ligand concentrations differed strongly between octopamine (≥300 nM) and NKH477 (≥100 µM). By plotting the maximal changes in fluorescence (ΔF/F0) against ligand concentrations, concentration–response curves were generated and EC50 values were calculated (Figure 4C). […] As observed for the DmOctα1B cell lines (see Figure 3D), the signal response times of flpTM-DmOctβ1 cells were faster at higher ligand concentrations (Figure 4A2,B2). In Figure 4D, the time until the signals were detected (for details, see Materials and Methods, Section 4.4) are plotted for the ligand concentrations covering the calculated EC50 value (dynamic range) and for saturating concentrations (saturating range). The signal response times of the flpTM-DmOctβ1 cells for octopamine were in the range of 30 s (dynamic range) and 6 s (saturating range), whereas the signal detection upon NKH477 application was observed after 50 s (dynamic range) and 16 s (saturating range). The signal response times were about three- to five-fold faster at the saturating concentrations in comparison to the octopamine and NKH477 concentrations in the dynamic range.
As described for the Fluo-4-loaded flpTM-DmOctβ1 cells, similar experiments were performed with the flpTM-DmOctβ1-GCaMP3.0 cells (Figure 5). The cells were successively mixed with increasing concentrations of octopamine (30 pM–100 nM) or NKH477 (30 nM–100 µM) and the fluorescence intensities were recorded over 100 s. For both of the ligands, increasing ligand concentrations led to an increase in the fluorescence emission finally reaching a plateau (Figure 5A1,B1).
For the stopped-flow measurements, the SFM-400 system (BioLogic, Münster, Germany) was used. The main component of the stopped-flow setup is the SFM-400 module with four 10 mL syringes, which can be filled by external valves. The syringes are driven by step motors. The reactants can be mixed in three individual mixing chambers (M1–M3). The volume between M1 and M2 is 21 µL, and 31 µL between M2 and M3. The observation chamber is a quartz cuvette (FC-15) with a reaction volume of 31 µL, installed behind M3. To avoid fluctuations of the reaction mixture in the cuvette, which might lead to noisy and inconsistent signals, a hard stop valve located behind the cuvette can be closed after injection of the reactants. The stopped-flow module is controlled via a MPS-60 control unit (BioLogic). Data acquisition and operation of the system were performed with the Bio-Kine 32 v4.74 software (BioLogic).
The reactions in the cuvette were analyzed via the changes in the fluorescence. A 150 W Xe/Hg-lamp (ALX-220; BioLogic) was used as a light source for the excitation. The excitation light was guided via a light guide towards the cuvette. To determine the wavelength of the excitation light, a 482 nm bandpass filter (482/35 nm BrightLine® single-band bandpass filter; Semrock, Rochester, NY, USA) was used. A heat protection filter (3 mm; KG1, Schott; Mainz, Germany) was placed between the Xe/Hg-lamp and the excitation filter. The fluorescence was detected with a photomultiplier (PMS 200, BioLogic) installed rectangularly to the light path of the excitation light. Between the cuvette and the photomultiplier tube a 535 nm bandpass emission filter (XF3007 535AF35; Horiba, Oberursel, Germany) was placed to select for the emission light being detected by the photomultiplier. A voltage of 600 V was applied to the photomultiplier.
The fluorescence measurements were performed either directly with the cells expressing GCaMP3.0 or after loading the cells with Fluo-4-AM. […]

Assay [1] deals with cell endogenous adenylyl cyclases. Briefly: Ca2+ fluorimetry in plate reader (96 MWP), flpTM-DmOctβ1 cells stimulated with NKH477. Format: cell-based, human. To be noted: for logEC50 ± SD: given as logEC50 (negative). How it is done: In another series of experiments, DmOctβ1 receptor-expressing cell lines were incubated with NKH477, a water soluble agonist of membrane bound adenylyl cyclases, the downstream effectors in DmOctβ1 signaling. Before stimulating the adenylyl cyclase activity, NKH477 has to cross the cell membrane and then binds to the catalytic domain of the enzyme. As before, the flpTM-DmOctβ1 cells were seeded in 96 MWPs and loaded with Fluo-4. In parallel, cells stably co-transfected with GCaMP3.0 were examined (flpTM-DmOctβ1-GCaMP3.0). All of the measurements were performed in the presence of 100 µM IBMX. […] In comparison to the octopamine-evoked responses, the EC50 values for NKH477 differed strongly, with values in the nanomolar range for octopamine and in the micromolar range for NKH477, but confirming the previous data on the octopamine receptors and adenylyl cyclases, respectively. […] Whether this effect was due to differences in the cytosolic distribution of both Ca^2+ detectors and/or the spatial presence of adenylyl cyclase isoforms in membrane domains has not been experimentally addressed.
In this study, we made use of previously established stably transfected cell lines. Briefly, human embryonic kidney cells (HEK293; #85120602, ECACC, Porton Down, Salisbury, UK) were transfected with 10 µg of DmOctα1B receptor-encoding construct by a modified calcium phosphate method. The cell line constitutively expressing the DmOctα1B receptors was propagated in MEM+Glutamax medium containing 10% (v/v) fetal calf serum, 1% (v/v) non-essential amino acids, 1% (v/v) antibiotics/antimycotics, and […] Geneticin (all obtained from ThermoFisher Scientific/Gibco; Dreieich, Germany). A related human embryonic kidney 293-based cell line (HEK293; flpIn cells; Invitrogen/ThermoFisher Scientific; #750-07) that was transfected with a gene encoding a variant of the A2-subunit of the olfactory cyclic nucleotide-gated ion channel (CNG; [31]; flpTM cells, provided by Sibion Biosciences, Jülich, Germany) was transfected with 10 µg of DmOctβ1 receptor-encoding construct. The cell line constitutively expressing the CNG channels and DmOctβ1 receptors was named flpTM-DmOctβ1 and propagated in DMEM+Glutamax medium containing 10% (v/v) fetal calf serum, 1% (v/v) penicillin/streptomycin, and 100 µg/mL Hygromycin, as well as […] Geneticin (all obtained from ThermoFisher Scientific/Gibco). […]
To monitor the intracellular changes of Ca^2+, the cells stably transfected with the genetically encoded calcium indicator GCaMP3.0 (Tian et al., 2009) or loaded with the calcium-sensitive fluorescent dye Fluo-4-AM (Life Technologies/Thermo Fisher Scientific) were analyzed in the plate reader FLUOstar Omega (BMG Labtech, Ortenberg, Germany). […]

The next assay addresses T1, CNGA2 channel (Bos taurus, UniProt Q03041, T537M).
T1 construct: host or cells: HEK293 flpIn cells (Invitrogen #750-07)
T1 sequence (Q03041 1-663 T537M): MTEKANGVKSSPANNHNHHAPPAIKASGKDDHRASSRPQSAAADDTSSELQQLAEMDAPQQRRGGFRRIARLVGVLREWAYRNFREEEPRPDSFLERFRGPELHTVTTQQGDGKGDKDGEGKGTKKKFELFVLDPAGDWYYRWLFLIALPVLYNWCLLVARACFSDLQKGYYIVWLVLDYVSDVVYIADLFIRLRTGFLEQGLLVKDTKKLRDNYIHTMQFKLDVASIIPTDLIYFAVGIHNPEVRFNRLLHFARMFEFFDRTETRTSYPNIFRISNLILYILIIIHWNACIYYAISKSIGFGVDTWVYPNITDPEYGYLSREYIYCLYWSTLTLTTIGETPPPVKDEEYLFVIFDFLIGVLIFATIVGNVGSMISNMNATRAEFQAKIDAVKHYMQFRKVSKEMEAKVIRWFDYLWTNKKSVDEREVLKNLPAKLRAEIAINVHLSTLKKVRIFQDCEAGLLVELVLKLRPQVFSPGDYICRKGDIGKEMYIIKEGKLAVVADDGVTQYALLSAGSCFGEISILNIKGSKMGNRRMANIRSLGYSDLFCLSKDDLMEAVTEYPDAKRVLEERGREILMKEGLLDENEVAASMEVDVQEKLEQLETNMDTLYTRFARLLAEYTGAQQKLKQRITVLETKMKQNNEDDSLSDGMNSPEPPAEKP
Put plainly: Stopped-flow flash photolysis of caged cAMP in Fluo-4-loaded flpTM-DmOctβ1 cells. The class given is cell-based, bovine. The conditions noted are these: for cAMP released by photolysis: based on quantum yield. The source says: Neutral density filters that regulate the transmission of light (5%, 25%, 50%, 80%, 100%) were installed, allowing application of different light intensities.
As an integral component of the flpTM-DmOctβ1 cell line, the cAMP-sensitive CNG channel (flpTM; see [32]) enables the detection of cellular cAMP dynamics via mediating cAMP-dependent opening of the channel pore and resulting in Ca^2+ influx. […] A (7-diethylaminocoumarin-4-yl)methyl (DEACM)-modified cAMP was used. The FlpTM-DmOctβ1 cells were loaded with Fluo-4 and DEACM-cAMP. For the stopped-flow measurements, the cells were mixed with ES in the cuvette and after 2 s, a UV-flash was triggered for 10 ms to release cAMP. The fluorescence signals were monitored for 12 s. The time point when triggering the light flash was defined as t = 0. Different concentrations of DEACM-cAMP were used (10 µM, 30 µM, 50 µM, and 100 µM) for loading cells. […] In successive experiments, different light intensities were applied (5%, 25%, 50%, 80%, 100%). The experiments were performed in the presence of 100 µM IBMX to avoid fluctuations in cAMP due to cell-endogenous phosphodiesterases.
For the photolysis of the caged compounds with ultraviolet (UV)-light, a Xe-flash lamp (JML-C2; Rapp Opto Electronics, Wedel, Germany) was coupled to the cuvette via an UV-light permeable light guide (Schott). A UV-2 interference filter was placed between the Xe-flash lamp and light guide to select for the UV-light needed for the photolysis of the caged compounds. Additionally, it prevents the photomultiplier from being hit by light that is able to pass the emission filter. The maximal energy of one light flash at the surface of the cuvette was 107 mJ·cm^−2 (set to C2 and 200 V). Neutral density (ND) filters (AHF Analysentechnik, Tübingen, Germany) could be installed between the interference filter and the Xe-flash lamp to regulate the intensity of the UV-light applied to the cuvette. To maximize the detection of the emission light, a test solution containing 50 nM of fluorescein in ES was added to the cuvette and the light guide was fixed to the Xe/Hg-lamp at a position where the photomultiplier detected maximal intensity.

Where [2] appears, read: flpTM-DmOctβ1-GCaMP3.0 cells, 100 µM IBMX.
Where [3] appears, read: flpTM-DmOctβ1 cells loaded with Fluo-4, 100 µM IBMX.

Where “and” joins values, the source holds several entries; their conditions need not be identical. Equal values may be shown once. Entries after “also recorded” stand apart in the source; their conditions may differ.

For the molecule `C=C[C@@]1(C)CC(=O)[C@]2(O)[C@@]3(C)[C@@H](O)CCC(C)(C)[C@@H]3[C@H](OC(=O)CCN(C)C)[C@H](OC(C)=O)[C@@]2(C)O1.Cl` [NKH477], the Signal Response Time in the assay with adenylyl cyclases (dynamic range (concentrations around EC50), flpTM-DmOctβ1-GCaMP3.0 cells) is 40 s; in the assay with adenylyl cyclases (dynamic range (concentrations around EC50), flpTM-DmOctβ1 cells loaded with Fluo-4), 50 s; with adenylyl cyclases (saturating concentration, flpTM-DmOctβ1-GCaMP3.0 cells, mean ± SEM), 13 s and 12.70 ± 0.52 s; with adenylyl cyclases (saturating concentration, flpTM-DmOctβ1 cells loaded with Fluo-4, mean ± SEM) it was 13.35 ± 0.82 s; in the assay with adenylyl cyclases (saturating ligand concentration, flpTM-DmOctβ1 cell lines, Fluo-4 and GCaMP3.0), 13 s. The EC50 in the assay with adenylyl cyclases (stopped-flow, flpTM-DmOctβ1-GCaMP3.0 cells, mean ± SEM) was 2.1 µM and 2.12 µM; in the assay with adenylyl cyclases (stopped-flow, flpTM-DmOctβ1 cells loaded with Fluo-4, mean ± SEM), 3.9 µM and 3.92 µM; in assay [1] (setting [2]), 100 nM; in assay [1] (setting [3]), 4500 nM. Besides, the saturating ligand concentration in the assay with adenylyl cyclases (stopped-flow, flpTM-DmOctβ1 cells loaded with Fluo-4) is at least 100 µM. Besides, the figures for the “logEC50 ± SD” value in assay [1] (setting [2]) and in assay [1] (setting [3]) were −6.91 ± 0.03 and −5.34 ± 0.09, respectively.
As to `CCN(CC)c1ccc2c(COP3(=O)OC[C@H]4O[C@@H](n5cnc6c(N)ncnc65)[C@H](O)[C@@H]4O3)cc(=O)oc2c1` (stereo partly shown) [DEACM-cAMP], on CNGA2 channel (cells loaded with 10 µM DEACM-cAMP, light intensities of 80% and 100%, 10 ms flash, 100 µM IBMX), the “time from light flash to rise in fluorescence (Ca2+ signal)” value is on record as “approximately 60 ms”. Further, the “onset of Ca2+ signals after light flash” value on CNGA2 channel (cells loaded with 30 µM DEACM-cAMP, 10 ms flash, 100 µM IBMX) is “immediately after the light flash; also recorded: immediately after photolysis”. Further, the “cAMP released by photolysis” value on CNGA2 channel (from 10 µM DEACM-cAMP) is reported as “approximately 2 µM”; at CNGA2 channel (from 30 µM DEACM-cAMP) it was around 6 µM.
